Like-named read-outs stand apart in the source and are kept apart here. Marks after values point to notes of the source that are not given here.
Assays:
thiol peptide [1] = test: Cys-DPRA (Direct Peptide Reactivity Assay), literature data; conditions: for Cys-DPRA binary classification: FN: false negative; for Cys-DPRA binary classification: FP: false positive; for Cys-DPRA binary classification: TN: true negative; for Cys-DPRA binary classification: TP: true positive
[2] = Microplate spectrophotometric method (DCYA assay), fluorescence end-point; conditions: for DCYA 100-RI: RI = reactivity index, 2 equiv. electrophile, pH 10 buffer; for DCYA binary classification: FN: false negative; for DCYA binary classification: FP: false positive; for DCYA binary classification: TN: true negative; for DCYA binary classification: TP: true positive, positive if 100-RI <95; for DCYA assay reactivity / classification in words: microplate spectrophotometric method
thiol peptide [3] = conditions: cited from earlier work
[4] = system: ARE-dependent gene activity in a recombinant cell line; conditions: cited from earlier work
[5] = NMR method: depletion of electrophile signal on reaction with DCYA
From the text: The described example can be applied to pure chemicals and mixtures. The method includes the acquisition of at least one NMR spectrum, mixing an electrophile and a nucleophile to acquire an array of control spectra and an addition of catalyst to record an array of reaction spectra. It also includes the quantification of at least one signal and the comparison of the signal with a control and the classification of the reaction based on the depletion of potential sensitizer based on the quantified residual signal.
2,5-Dimethylfuran was used as internal standard. When necessary, characterization of the product(s) formed during the reaction(s) was performed by homonuclear ^1H connectivities using 2D-COSY experiments. […] Two- and three bond ^1H-^13C connectivities were determined by gradient-HMBC experiments in which the evolution period for long-range ^1H-^13C coupling constants was optimized for a ^2,3JC,H of 8 Hz. Through-space ^1H connectivities were determined using a NOESY experiment with a mixing time of 0.450 s. […] Toronto, Canada].
In a 3 mm NMR tube, 1 volume of DCYA (100) mM in CDCl3) was mixed with one volume of sensitizer (100 mM in CDCl3) to give a final concentration of 50 mM for both DCYA and the sensitizer. Control ^1H NMR spectra (reference spectra) were recorded at regular intervals of for a minimum of 5 min. […] All spectra were recorded at constant temperature. All experiments were conducted using the manufacturer's standard presaturation pulse programs and experimental conditions were chosen as explained in NMR spectroscopy section. The progress of the reaction was followed by the diminished peak areas of the resonances for the signal of interest. The spectra were phased, referenced, and integrated using NMR data elaboration software. The structural characterizations of the resulting adducts were confirmed by conducting additional 2D-NMR experiments when necessary.
Covalent reaction of DCYA with carvone is dependent on the activation of the nucleophilic group (ex. sulfhydryl group to the reactive thio-anion) under basic conditions. This reaction is strongly dependent on the nature of the nucleophile and may be modulated by careful choice of the model nucleophile and the reaction conditions.
The control spectra are used as reference spectra (FIG. 3A). All the spectra were subjected to automatic phase and baseline correction using a Bernstein polynomial fit (order 3). After these two steps, all the spectra were integrated over the areas of interest. […] Both vinylic and adduct peak areas were normalized relative to the internal standard signal peaks. […] The concentrations of both electrophile and adduct were then plotted as percentage against time (in minutes). (FIG. 5).

[6] = cited from earlier work; for LLNA (EC3): effective concentration, published literature (Table 1); for LLNA Classification: published literature; for LLNA EC3: reported results (Table 7)
[7] = reported results from the literature
[8] = based on depletion of electrophile signal at 30 min
[9] = conversion of test chemical at 90 min, 1 equiv. DCYA, 0.1 equiv. DBN, CDCl3

| Compound | Cys-DPRA binary classification: TP (thiol peptide [1]) | DCYA 100-RI [2] | DCYA binary classification: FN [2] | DCYA binary classification: FP [2] | DCYA binary classification: TN [2] | DCYA binary classification: TP [2] | Cys-DPRA binary classification: FN (thiol peptide [1]) | Cys-DPRA binary classification: FP (thiol peptide [1]) | Cys-DPRA binary classification: TN (thiol peptide [1]) | KeratinoSens ™ EC3 ([4]; reported results (Table 7)) [µM] | other results |
| --- | --- | --- | --- | --- | --- | --- | --- | --- | --- | --- | --- |
| CC1=C(C=O)C(C)(C)CC=C1 [Safranal] | 1 | 82.9 | 0 | 0 | 0 | 1 | 0 | 0 | 0 | – | NMR assay reactivity / classification in words [5]: less reactive by NMR in the short time frame; Conversion at t30 (depletion of electrophile signal) ([5]; at 30 min, 1 equiv. DCYA): 3%; NMR Classification [5, 8]: Non; NMR Method conversion [5, 9]: 4%; LLNA (EC3) [6]: 7.5%; LLNA Classification [6]: Moderate; LLNA EC3 [6]: 7.5%; Cys-DPRA, percentage of thiol peptide depleted (thiol peptide [3]; adopted from the literature): 90.5^15%; Cys-DPRA % Pept. remain. (thiol peptide [3]; [7]): 9.5% |
| C=C1CC(OC(=O)/C(C)=C/C)C2C(=C)C(=O)OC2/C=C(\C)C(O)CC1O (stereo not shown) [hydroxyiso-nobilin, hydroxyisonobilin] | – | – | – | – | – | – | – | – | – | – | DCYA assay reactivity / classification in words [2]: highly reactive |
| Oc1cccc(O)c1 [Resorcinol] | – | 103.5 | – | – | – | – | – | – | – | – | DCYA assay reactivity / classification in words [2]: non-reactive |
| CC=CC(=O)CC [4-Hex-3-en-one] | – | 2.8 | 0 | 0 | 0 | 1 | 0 | 0 | 0 | – | LLNA EC3 [6]: 4.2% |
| Clc1ccccc1 [Chlorobenzene] | 0 | 97.8 | 0 | 0 | 1 | 0 | 0 | 0 | 1 | – | Cys-DPRA % Pept. remain. (thiol peptide [3]): 99.6%; KeratinoSens ™ EC3 [4]: >2000 µM |
| CCCCBr [1-Bromobutane] | 0 | – | 0 | 0 | 1 | 0 | 0 | 1 | 0 | >2000 | Cys-DPRA reactivity in words (thiol peptide [3]; literature): minimal reaction; DCYA adduct after long incubation ([2]; after 24 h of incubation): minor DCYA adduct; DCYA assay reactivity / classification in words [2]: non-reactive |
| COc1cc(/C=C/C(=O)CC(=O)/C=C/c2ccc(O)c(OC)c2)ccc1O [Curcumin] | – | – | – | – | – | – | – | – | – | – | Conversion at t30 (depletion of electrophile signal) ([5]; at 30 min, only one equivalent of DCYA, curcumin in DMSO-d6): 17^# %; Conversion at t30 (depletion of electrophile signal) ([5]; at 30 min, two equivalents of DCYA, curcumin in DMSO-d6): 43* %; NMR Method conversion ([5]; at 90 min, one equivalent of DCYA, DMSO-d6): 18%; NMR Method conversion ([5]; at 90 min, two equivalents of DCYA, DMSO-d6): 43% |
| C=C(C)[C@@H]1CCC2=CC(=O)C[C@@H](C)[C@]2(C)C1 [Nootkatone] | – | – | – | – | – | – | – | – | – | – | Conversion at t30 (depletion of electrophile signal) ([5]; at 30 min, 1 equiv. DCYA): 0%; NMR Classification [5, 8]: Non; NMR Method conversion [5, 9]: 0% |
| O=Cc1ccccc1 [Benzaldehyde] | 0 | 98.1 | 0 | 0 | 1 | 0 | 0 | 1 | 0 | – | – |
| CC(C)=CCCC(C)=CCCC(C)=CC=O [Farnesal] | 1 | – | – | – | – | – | 0 | 0 | 0 | >2000 | Cys-DPRA % Pept. remain. (thiol peptide [3]; [7]): 83.6% |
| Nc1ccccc1 [Aniline] | – | – | – | – | – | – | – | – | – | >2000 | Cys-DPRA % Pept. remain. (thiol peptide [3]; [7]): 100% |
| O=C1CCO1 [Propionolactone] | – | – | 0 | 0 | 0 | 1 | 0 | 0 | 0 | – | – |
| C=C1C(=O)O[C@@H]2/C=C(/C)[C@H](O)C[C@@H](O)C(=C)C[C@H](OC(=O)/C(C)=C\C)[C@@H]12 [3 epi-hydroxyisonobilin] | – | – | – | – | – | – | – | – | – | – | DCYA assay reactivity / classification in words [2]: highly reactive |

Continued, in another order:

| Cys-DPRA binary classification: TP (thiol peptide [1]) | DCYA 100-RI [2] | DCYA binary classification: FN [2] | DCYA binary classification: FP [2] | DCYA binary classification: TN [2] | DCYA binary classification: TP [2] | Compound | Cys-DPRA binary classification: FN (thiol peptide [1]) | Cys-DPRA binary classification: FP (thiol peptide [1]) | Cys-DPRA binary classification: TN (thiol peptide [1]) | KeratinoSens ™ EC3 ([4]; reported results (Table 7)) [µM] | other results |
| --- | --- | --- | --- | --- | --- | --- | --- | --- | --- | --- | --- |
| 0 | 100.7 | 0 | 0 | 1 | 0 | O=C(O)C(O)C(O)C(=O)O (stereo not shown) [Tartaric acid] | 0 | 0 | 1 | – | – |
| 1 | 107.3 | 1 | 0 | 0 | 0 | CC/C=C\CCCCC=O [cis-6-Nonenal] | 0 | 0 | 0 | 687.67 | Cys-DPRA % Pept. remain. (thiol peptide [3]; [7]): 92% |
| 0 | 89.4 | 0 | 1 | 0 | 0 | O=C(O)C(=O)O [Oxalic acid] | 0 | 0 | 1 | – | – |
| 0 | 100.1 | 0 | 0 | 1 | 0 | CC(O)C(=O)O (stereo not shown) [Lactic acid] | 0 | 0 | 1 | >2000 | – |
| 0 | 110.6 | 0 | 0 | 1 | 0 | O=C(OCc1ccccc1)c1ccccc1 [Benzyl benzoate] | 0 | 0 | 1 | – | – |
| 0 | 106.9 | 0 | 0 | 1 | 0 | O=C(O)c1ccccc1O [Salicylic acid] | 0 | 0 | 1 | >2000 | – |
| – | 18.2 | – | – | – | – | CC/C=C/C=O [t-2-Pentenal, trans-2-Pentenal] | – | – | – | – | NMR Classification [5]: Strong; Conversion at t30 (depletion of electrophile signal) ([5]; 30 min, 50 mM): 80%; NMR Method conversion ([5]; 90 min, 50 mM): 80%; DCYA assay reactivity / classification in words [2]: moderate reactive |
| 1 | 88.8 | 0 | 0 | 0 | 1 | CC(C)=CCCC(C)=CC=O [Citral] | 0 | 0 | 0 | 67.36 | NMR assay reactivity / classification in words [5]: moderate/low electrophilic behavior; Conversion at t30 (depletion of electrophile signal) ([5]; 30 min, 50 mM): 29%; NMR Method conversion ([5]; 90 min, 50 mM): 29%; NMR Classification [5, 8]: Weak-moderate; LLNA (EC3) [6]: 9.2%; LLNA Classification [6]: Moderate; LLNA EC3 [6]: 9.2%; KeratinoSens ™ EC3 ([4]; published literature (Table 1)): 67.36 µM |
